In a compilation of properties of binary mixtures (doi:10.1007/s10953-014-0273-1):

Test: xn = mol fraction of the nth substance listed
Conditions: 101 kPa

CC#N + CCCC[n+]1ccn(C)c1.F[B-](F)(F)F
x1 = 1
Conditions | viscosity [mPa·s]
303.15 K | 0.329
313.15 K | 0.3
323.15 K | 0.276

CO + CCCC[n+]1ccn(C)c1.F[B-](F)(F)F
x1 = 1
Conditions | viscosity [mPa·s]
313.15 K | 0.455
323.15 K | 0.401

CC(=O)N(C)C + CCCC[n+]1ccn(C)c1.F[B-](F)(F)F
x1 = 1
Conditions | viscosity [mPa·s]
303.15 K | 0.882
323.15 K | 0.69
333.15 K | 0.618

CCCC[n+]1ccn(C)c1.F[B-](F)(F)F + CC#N
viscosity [mPa·s]
Conditions | x2 = 0 | x2 = 0.1001 | x2 = 0.2034 | x2 = 0.3011 | x2 = 0.4013 | x2 = 0.5 | x2 = 0.6018 | x2 = 0.7 | x2 = 0.7997 | x2 = 0.9001
303.15 K | – | 55.2 | – | 23.74 | 14.97 | 9.25 | 5.34 | 3 | 1.611 | 0.792
313.15 K | 53 | 36.5 | 24.4 | 16.9 | – | 7.14 | – | 2.522 | 1.389 | 0.707
323.15 K | – | 25.36 | 17.76 | – | 8.57 | – | 3.58 | 2.155 | – | 0.636
333.15 K | 25.01 | 18.43 | 13.23 | 9.83 | 6.83 | 4.69 | 3.03 | 1.877 | 1.103 | 0.579

CN1CCCC1=O + CCCC[n+]1ccn(C)c1.F[B-](F)(F)F
Conditions | viscosity [mPa·s]
303.15 K, x1 = 1 | 1.551

CCCC[n+]1ccn(C)c1.F[B-](F)(F)F + CO
viscosity [mPa·s]
Conditions | x2 = 0 | x2 = 0.1003 | x2 = 0.2047 | x2 = 0.2997 | x2 = 0.3996 | x2 = 0.504 | x2 = 0.6004 | x2 = 0.6992 | x2 = 0.7997 | x2 = 0.9001
303.15 K | 84.2 | 54.2 | 34.6 | 23.54 | 15.02 | 9.42 | – | 3.67 | 2.118 | 1.141
313.15 K | – | – | – | 16.93 | 11.32 | 7.4 | 4.86 | 3.03 | – | –
323.15 K | 35.5 | – | 17.81 | 12.9 | 8.94 | 6.02 | – | 2.537 | 1.527 | 0.895
333.15 K | 25.01 | 18.68 | 13.6 | 10.13 | – | 5.03 | 3.42 | 2.195 | 1.337 | 0.765

CCCC[n+]1ccn(C)c1.F[B-](F)(F)F + CN1CCCC1=O
viscosity [mPa·s]
Conditions | x2 = 0 | x2 = 0.0999 | x2 = 0.2001 | x2 = 0.3028 | x2 = 0.4 | x2 = 0.4999 | x2 = 0.5998 | x2 = 0.7001 | x2 = 0.8003 | x2 = 0.9001
303.15 K | – | – | – | – | – | 17.17 | 11.43 | 7.37 | 4.64 | 2.9
313.15 K | 53 | 41 | 31.6 | 23.77 | 17.42 | 12.5 | 8.61 | 5.75 | 3.76 | 2.409
323.15 K | – | 28.2 | 22.15 | 17.13 | 13 | 9.47 | 6.73 | – | 3.13 | 1.991
333.15 K | 25.01 | 20.3 | 16.25 | 12.83 | 9.93 | 7.46 | 5.37 | 3.79 | 2.66 | 1.722

CCCC[n+]1ccn(C)c1.F[B-](F)(F)F + CC(=O)N(C)C
viscosity [mPa·s]
Conditions | x2 = 0 | x2 = 0.1006 | x2 = 0.2004 | x2 = 0.3005 | x2 = 0.4011 | x2 = 0.5002 | x2 = 0.5998 | x2 = 0.6996 | x2 = 0.8002 | x2 = 0.8999
303.15 K | 84.2 | 59 | 41.6 | 29 | 19.38 | 12.88 | 8.32 | 4.99 | 2.95 | 1.679
313.15 K | 53 | 38.5 | 28 | 20.16 | 14 | – | 6.32 | 4 | 2.44 | –
323.15 K | 35.5 | 26.6 | 19.88 | 14.62 | 10.55 | 7.37 | – | – | 2.069 | –
333.15 K | 25.01 | 19.27 | 14.76 | 11.08 | 8.15 | 5.87 | 4.09 | 2.77 | – | 1.1
